Laboratory results reported in patent US20040146872A1, “Fat regulated genes, uses thereof and compounds for modulating same” (priority 2003, published 2004).

Key:
Assay type in all cases: in vivo
FTF1 = test: Northern blot quantification of FTF1 mRNA in liver of rats fed PUFA-supplemented fat free diet; details: rat liver RNA; female Wistar rats, fat free diet 2 weeks, then fatty acid 5% (w/w) in diet 2 weeks; ± standard deviation of three rats; not normalized for 18S; fat free = 100
Source text: (§1) The present inventors have identified genes that were modulated or regulated by dietary fat using a differential display technique (Liang P. and Pardee A. B., 1992, Science, 257: 967-971). Groups of female Wistar rats were fed fat free diet for two weeks. After two weeks all groups but one (controls) were supplemented with highly purified PUFAs for an additional two weeks. The rats were sacrificed and tissues were removed to obtain RNA for differential display and Northern blotting. Differential display identified genes regulated by dietary fat by comparing mRNA populations from rat liver. For the study, the rats were divided into six groups and fed fat free diet for 14 days. Each group was fed fat free diet for an additional two weeks with the following supplements: group 1-no supplement (fat free control); group 2-linoleic acid (LA, 18:2n-6); group 3-gamma-linolenic acid (GLA, 18:3n-6); group 4-alpha-linolenic acid (ALA, 18:3n-3); group 5-eicosapentaenoic acid (EPA, 20:5n-3) and group 6-docosahexaenoic acid (DHA, 22:6n-3). Fatty acids were administered in the diet at a fatty acid-specific concentration of 5% (w/w), as described in Example 1. The rats were fed ad libitum. […] The rats were randomly divided into 6 groups and fed fat free diet (Teklad #94013). After 2 weeks, groups 2-6 were fed diets supplemented with highly purified polyunsaturated fatty acids for an additional 2 weeks. The concentration of the specific fatty acid used for each group was 5% (w/w) of the total diet preparation. The experimental design is provided below. Diets were prepared by mixing the oils into the fat free diet. The mixed diet was stored at -20° C. under a nitrogen atmosphere to prevent fatty acid oxidation. Dietary feedings were provided at the same time each day. Diet preparations are shown below. Rats ([…]) were sacrificed via cardiac puncture under anesthesia. The livers were perfused with saline, excised and frozen in liquid nitrogen in preparation for RNA extraction. Total RNA from 0.4 g of each liver was isolated as per manufacturer's protocol using Trizol Reagent (Gibco BRL). In order to remove contaminating genomic DNA, the RNA sample was incubated with RQ1 RNase-free DNase (Promega) for 30 minutes at 37° C. The RNA was subsequently precipitated and resuspended to a final concentration of 0.5 mg/ml. To confirm the expression pattern of the genes as discovered in the differential display experiment and to determine the transcript size of these genes, Northern blot analysis was performed. […] The transfer of the RNA onto the membrane was verified by methylene blue staining. […] The Northern blot was performed following the protocol in Ausubel et al., 1994-, Current Protocols in Molecular Biology, John Wiley & Sons, NY. […]

METP = test: Northern blot quantification of METP mRNA in liver of rats fed PUFA-supplemented fat free diet; details: rat liver RNA; female Wistar rats, fat free diet 2 weeks, then fatty acid 5% (w/w) in diet 2 weeks; ± standard deviation of three rats; normalized for 18S; EPA = 100, fat free = 10 ± 5
Source text: as §1

GPAT = test: Northern blot quantification of GPAT mRNA in liver of rats fed PUFA-supplemented fat free diet; details: rat liver RNA; female Wistar rats, fat free diet 2 weeks, then fatty acid 5% (w/w) in diet 2 weeks; ± standard deviation of three rats; normalized for 18S; fat free = 100
Source text: as §1

GLOL = test: Northern blot quantification of GLOL mRNA in liver of rats fed PUFA-supplemented fat free diet; details: rat liver RNA; female Wistar rats, fat free diet 2 weeks, then fatty acid 5% (w/w) in diet 2 weeks; ± standard deviation of three rats; normalized for 18S; fat free = 100
Source text: as §1

FAS = test: Northern blot quantification of FAS mRNA in liver of rats fed PUFA-supplemented fat free diet; details: rat liver RNA; female Wistar rats, fat free diet 2 weeks, then fatty acid 5% (w/w) in diet 2 weeks; ± standard deviation of three rats; normalized for 18S; fat free = 100
Source text: as §1

Spot-14 = test: Northern blot quantification of Spot-14 mRNA in liver of rats fed PUFA-supplemented fat free diet; details: rat liver RNA; female Wistar rats, fat free diet 2 weeks, then fatty acid 5% (w/w) in diet 2 weeks; ± standard deviation of three rats; normalized for 18S; fat free = 100
Source text: as §1

SCD1 = test: Northern blot quantification of SCD1 mRNA in liver of rats fed PUFA-supplemented fat free diet; details: rat liver RNA; female Wistar rats, fat free diet 2 weeks, then fatty acid 5% (w/w) in diet 2 weeks; ± standard deviation of three rats; normalized for 18S; fat free = 100
Source text: The present inventors have identified genes that were modulated or regulated by dietary fat using a differential display technique (Liang P. and Pardee A. B., 1992, Science, 257: 967-971). Groups of female Wistar rats were fed fat free diet for two weeks. After two weeks all groups but one (controls) were supplemented with highly purified PUFAs for an additional two weeks. The rats were sacrificed and tissues were removed to obtain RNA for differential display and Northern blotting. Differential display identified genes regulated by dietary fat by comparing mRNA populations from rat liver. For the study, the rats were divided into six groups and fed fat free diet for 14 days. Each group was fed fat free diet for an additional two weeks with the following supplements: group 1-no supplement (fat free control); group 2-linoleic acid (LA, 18:2n-6); group 3-gamma-linolenic acid (GLA, 18:3n-6); group 4-alpha-linolenic acid (ALA, 18:3n-3); group 5-eicosapentaenoic acid (EPA, 20:5n-3) and group 6-docosahexaenoic acid (DHA, 22:6n-3). Fatty acids were administered in the diet at a fatty acid-specific concentration of 5% (w/w), as described in Example 1. The rats were fed ad libitum. […] The rats were randomly divided into 6 groups and fed fat free diet (Teklad #94013). After 2 weeks, groups 2-6 were fed diets supplemented with highly purified polyunsaturated fatty acids for an additional 2 weeks. The concentration of the specific fatty acid used for each group was 5% (w/w) of the total diet preparation. The experimental design is provided below. Diets were prepared by mixing the oils into the fat free diet. The mixed diet was stored at -20° C. under a nitrogen atmosphere to prevent fatty acid oxidation. Dietary feedings were provided at the same time each day. Diet preparations are shown below. Rats ([…]) were sacrificed via cardiac puncture under anesthesia. The livers were perfused with saline, excised and frozen in liquid nitrogen in preparation for RNA extraction. Total RNA from 0.4 g of each liver was isolated as per manufacturer's protocol using Trizol Reagent (Gibco BRL). […]

ApoA-1 = test: Northern blot quantification of ApoA-1 mRNA in liver of rats fed PUFA-supplemented fat free diet; details: rat liver RNA; female Wistar rats, fat free diet 2 weeks, then fatty acid 5% (w/w) in diet 2 weeks; ± standard deviation of three rats; normalized for 18S; fat free = 100
Source text: as §1

SCD2 = test: Northern blot quantification of SCD2 mRNA in liver of rats fed PUFA-supplemented fat free diet; details: rat liver RNA; female Wistar rats, fat free diet 2 weeks, then fatty acid 5% (w/w) in diet 2 weeks; ± standard deviation of three rats; normalized for 18S; fat free = 100
Source text: as §1

G6PD = test: Northern blot quantification of G6PD mRNA in liver of rats fed PUFA-supplemented fat free diet; details: rat liver RNA; female Wistar rats, fat free diet 2 weeks, then fatty acid 5% (w/w) in diet 2 weeks; ± standard deviation of three rats; not normalized for 18S; fat free = 100
Source text: as §1

A1BG = test: Northern blot quantification of A1BG mRNA in liver of rats fed PUFA-supplemented fat free diet; details: rat liver RNA; female Wistar rats, fat free diet 2 weeks, then fatty acid 5% (w/w) in diet 2 weeks; ± standard deviation of three rats; not normalized for 18S; DHA = 100, fat free = 7 ± 9
Source text: as §1

[1] = test system: delta-3, delta-2-enoyl-CoA isomerase; test: Northern blot quantification of delta-3, delta-2-enoyl-CoA isomerase mRNA in liver of rats fed PUFA-supplemented fat free diet; details: rat liver RNA; female Wistar rats, fat free diet 2 weeks, then fatty acid 5% (w/w) in diet 2 weeks; ± standard deviation of three rats; normalized for 18S; EPA = 100, fat free = 14 ± 18
Source text: as §1

INSIG1 = test: Northern blot quantification of INSIG1 mRNA in liver of rats fed PUFA-supplemented fat free diet; details: rat liver RNA; female Wistar rats, fat free diet 2 weeks, then fatty acid 5% (w/w) in diet 2 weeks; ± standard deviation of three rats; normalized for 18S; fat free = 100
Source text: as §1

COMT = test: Northern blot quantification of COMT mRNA in liver of rats fed PUFA-supplemented fat free diet; details: rat liver RNA; female Wistar rats, fat free diet 2 weeks, then fatty acid 5% (w/w) in diet 2 weeks; ± standard deviation of three rats; normalized for 18S; fat free = 100
Source text: as §1

[2] = test system: mRNA populations from rat liver; test: Differential display of mRNA populations from liver of rats fed PUFA-supplemented fat free diet; details: preliminary differential display studies
Source text: The present inventors have identified genes that were modulated or regulated by dietary fat using a differential display technique (Liang P. and Pardee A. B., 1992, Science, 257: 967-971). Groups of female Wistar rats were fed fat free diet for two weeks. After two weeks all groups but one (controls) were supplemented with highly purified PUFAs for an additional two weeks. The rats were sacrificed and tissues were removed to obtain RNA for differential display and Northern blotting. Differential display identified genes regulated by dietary fat by comparing mRNA populations from rat liver. For the study, the rats were divided into six groups and fed fat free diet for 14 days. Each group was fed fat free diet for an additional two weeks with the following supplements: group 1—no supplement (fat free control); group 2—linoleic acid (LA, 18:2n-6); group 3—gamma-linolenic acid (GLA, 18:3n-6); group 4—alpha-linolenic acid (ALA, 18:3n-3); group 5—eicosapentaenoic acid (EPA, 20:5n-3) and group 6—docosahexaenoic acid (DHA, 22:6n-3). Fatty acids were administered in the diet at a fatty acid-specific concentration of 5% (w/w), as described in Example 1. The rats were fed ad libitum. The protocol used in the present differential display experiment is based on, and closely followed, the Clontech Delta Differential Display Kit (Clontech Catalog No. K1810-1). […]

SMILES | quantification of the Northern blots, FTF1 (FTF1) | quantification of the Northern blots, METP (METP) | quantification of the Northern blots, GPAT (GPAT) | quantification of the Northern blots, GLOL (GLOL) | quantification of the Northern blots, FAS (FAS) | quantification of the Northern blots, Spot-14 (Spot-14) | quantification of the Northern blots, SCD1 (SCD1) | quantification of the Northern blots, ApoA-1 (ApoA-1) | quantification of the Northern blots, SCD2 (SCD2) | quantification of the Northern blots, G6PD (G6PD) | quantification of the Northern blots, A1BG (A1BG) | quantification of the Northern blots, delta-3, delta-2-enoyl-CoA isomerase [1] | quantification of the Northern blots, INSIG1 (INSIG1) | quantification of the Northern blots, COMT (COMT) | differences in differential display versus fat free control [2]
CC/C=C\C/C=C\C/C=C\C/C=C\C/C=C\C/C=C\CCC(=O)O [DHA, docosahexaenoic acid] | 13 ± 12% | 80 ± 28% | 26 ± 15% | 36 ± 17% | 27 ± 21% | 24 ± 18% | 1 ± 1% | 12 ± 1% | 4 ± 1% | 19 ± 7% | 100 ± 64% | 87 ± 2% | 13 ± 11% | 49 ± 3% | 
CC/C=C\C/C=C\C/C=C\C/C=C\C/C=C\CCCC(=O)O [EPA, eicosapentaenoic acid] | 10 ± 7% | 100 ± 16% | 14 ± 10% | 29 ± 15% | 17 ± 14% | 19 ± 25% |  | 25 ± 4% | 2 ± 1% | 15 ± 14% | 32 ± 30% | 100 ± 35% | 25 ± 3% | 50 ± 4% | 
CCCCC/C=C\C/C=C\C/C=C\CCCCC(=O)O [GLA, gamma-linolenic acid] | 4 ± 8% | 78 ± 12% | 15 ± 13% | 37 ± 11% | 17 ± 12% | 12 ± 7% | 6 ± 8% | 32 ± 8% | 11 ± 6% | 8 ± 9% | 14 ± 10% | 33 ± 15% | 11 ± 2% | 45 ± 23% | 
CCCCC/C=C\C/C=C\CCCCCCCC(=O)O [LA, linoleic acid] | 56 ± 15% | 37 ± 7% | 52 ± 5% | 64 ± 6% | 47 ± 40% | 50 ± 6% | 63 ± 20% | 90 ± 23% | 63 ± 15% | 42 ± 27% | 52 ± 47% | 29 ± 27% | 49 ± 12% | 59 ± 6% | no differences
